According to US10280145B2 (Toray Industries, Inc., priority 2015, dated 2019):

Target: T1, intracellular domain of DDR1 (Homo sapiens, UniProt Q08345)
T1 construct: the intracellular domain of DDR1 (in a final concentration of 5 ng/μL) (Carna Biosciences, Inc.); purchased Carna Biosciences, Inc
Experiment: Evaluation of DDR1 inhibition activity with HTRF KinEASE-TK kit
Assay type: biochemical
Conditions: DDR1 intracellular domain 5 ng/μL, ATP 25 μm/L, TK Substrate-biotin 1000 nmol/L, room temperature, one hour
Protocol: The DDR1 inhibition activity in the compounds of Examples 1 to 80 was evaluated with HTRF® KinEASE-TK kit (Cisbio Bioassays).
Each test substance was dissolved in dimethyl sulfoxide and then used for the evaluation as described below. Moreover, each of test substances and reagents was diluted in the kinase buffer (Cisbio Bioassays) prepared by adding thereto MgCl2, MnCl2, DTT, and the Supplemental Enzyme buffer (Cisbio Bioassays) to concentrations of 5 mmol/L, 0.5 mmol/L, 0.25 mmol/L, and 50 nmol/L, respectively, and then used. Each test substance (in DMSO in a final concentration of 1%), the intracellular domain of DDR1 (in a final concentration of 5 ng/μL) (Carna Biosciences, Inc.), the phosphate donor ATP (in final concentration of 25 μm/L) (Sigma), and the substrate TK Substrate-biotin (in a final concentration of 1000 nmol/L) (Cisbio Bioassays) were added to a 384-well black plate (Corning) and allowed to react at room temperature for one hour. After completion of the reaction, the TK Antibody-Cryptate (Cisbio Bioassays) and the Streptavidin-XL665 (Cisbio Bioassays) were added thereto and allowed to react at room temperature for one hour. In addition, the plate was provided with a well to which a test substance was not added, and with a well to which a test substance and the intracellular domain of DDR1 were […].
The fluorescence intensity in each well was measured using a multi-label counter (Envision, PerkinElmer; excitation wavelength: 320 nm, measurement wavelength: 665 nm and 620 nm) to calculate a ratio (the fluorescence intensity at 665 nm/the fluorescence intensity at 620 nm). The inhibition rate (%) of a test substance at each concentration was calculated based on the formula below: Inhibition rate (%)=([the ratio obtained from the well containing no test substance]−[the ratio from a well containing a test substance])/([the ratio obtained from the well containing no test substance]−[the ratio obtained from the well containing no intracellular domain of DDR1 and no test substance])×100.
The calculated inhibition rates were fitted to a sigmoidal dose-response curve by regression analysis using the Prism 5.04 (GraphPad Software, Inc.) to calculate the IC50 value of the test substance.

T1 sequence (Q08345 439-913 limits assumed): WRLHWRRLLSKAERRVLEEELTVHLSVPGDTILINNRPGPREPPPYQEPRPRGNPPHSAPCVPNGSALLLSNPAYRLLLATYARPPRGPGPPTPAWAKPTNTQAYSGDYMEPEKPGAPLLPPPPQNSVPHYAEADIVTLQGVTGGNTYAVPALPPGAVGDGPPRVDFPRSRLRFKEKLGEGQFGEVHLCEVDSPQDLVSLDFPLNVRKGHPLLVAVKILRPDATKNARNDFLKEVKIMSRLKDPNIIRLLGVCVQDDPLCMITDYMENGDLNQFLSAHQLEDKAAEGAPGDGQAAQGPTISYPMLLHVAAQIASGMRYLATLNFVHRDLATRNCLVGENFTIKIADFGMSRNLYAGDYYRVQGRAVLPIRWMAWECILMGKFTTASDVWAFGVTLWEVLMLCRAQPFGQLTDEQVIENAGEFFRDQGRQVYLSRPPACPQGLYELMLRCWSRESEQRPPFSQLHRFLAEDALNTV

Row | Molecule | IC50
1 | COc1ccc(OC(F)(F)F)cc1NC(=O)N[C@H]1CC[C@H](Oc2ccc(-c3ccccc3)nn2)CC1 [Example 16] | 963 nM
2 | COc1ccc(C(F)(F)F)cc1NC(=O)N[C@H]1CC[C@H](Oc2ncccn2)CC1 [Example 11, 1-(2-methoxy-5-(trifluoromethyl)phenyl)-3-(trans-4-(pyrimidin-2-yloxy)cyclohexyl)urea] | 384 nM
3 | O=C(Nc1cc(C(F)(F)F)ccc1OC1CCNCC1)N[C@H]1CC[C@H](OCc2ccncc2)CC1 [Example 32, 1-(2-(piperidin-4-yloxy)-5-(trifluoromethyl)phenyl)-3-(trans-4-(pyridin-4-ylmethoxy)cyclohexyl)urea] | 10 nM
4 | COc1ccc(S(F)(F)(F)(F)F)cc1NC(=O)N[C@H]1CC[C@H](Oc2ncccn2)CC1 [Example 10, 1-(2-methoxy-5-(pentafluorosulfanyl)phenyl)-3-(trans-4-(pyrimidin-2-yloxy)cyclohexyl)urea] | 167 nM
5 | O=C(Nc1cc(CO)cc(C(F)(F)F)c1)N[C@H]1CC[C@H](OCc2ccncc2)CC1 [Example 20, 1-(3-(hydroxymethyl)-5-(trifluoromethyl)phenyl)-3-(trans-4-(pyridin-4-ylmethoxy)cyclohexyl)urea] | 114 nM
6 | COc1ccc(C(F)(F)F)cc1NC(=O)N[C@H]1CC[C@H](OCc2ccncc2)CC1 [Example 24, 1-(2-methoxy-5-(trifluoromethyl)phenyl)-3-(trans-4-(pyridin-4-ylmethoxy)cyclohexyl)urea] | 124 nM
7 | COc1c(CO)cc(S(F)(F)(F)(F)F)cc1NC(=O)N[C@H]1CC[C@H](Oc2ccnc(N3CCOCC3)n2)CC1 [Example 5, 1-(3-(hydroxymethyl)-2-methoxy-5-(pentafluorosulfanyl)phenyl)-3-(trans-4-((2-morpholinopyrimidin-4-yl)oxy)cyclohexyl)urea] | 65.9 nM
8 | 1-(2-(oxetan-3-yloxy)-5-(trifluoromethoxy)phenyl)-3-(trans-4-(pyridin-4-ylmethoxy)cyclohexyl)urea [Example 30] | 50.4 nM
9 | O=C(Nc1cc(C(F)(F)F)ccc1OC1CNC1)N[C@H]1CC[C@H](OCc2ccncc2)CC1 [Example 31, 1-(2-(azetidin-3-yloxy)-5-(trifluoromethyl)phenyl)-3-(trans-4-(pyridin-4-ylmethoxy)cyclohexyl)urea] | 76.7 nM
10 | O=C(Nc1cc(C(F)(F)F)ccc1O[C@H]1CCNC1)N[C@H]1CC[C@H](OCc2ccncc2)CC1 [Example 36, 1-(trans-4-(pyridin-4-ylmethoxy)cyclohexyl)-3-(2-((S)-pyrrolidin-3-yloxy)-5-(trifluoromethyl)phenyl)urea] | 140 nM
11 | O=C1CN(c2ccc(C(F)(F)F)cc2NC(=O)N[C@H]2CC[C@H](Oc3ccnc(N4CCOCC4)n3)CC2)CCN1 [Example 8, 1-(trans-4-((2-morpholinopyrimidin-4-yl)oxy)cyclohexyl)-3-(2-(3-oxopiperazin-1-yl)-5-(trifluoromethyl)phenyl)urea] | 46.3 nM

The next lines start with the values.

Row | IC50 | Molecule
12 | 42.1 nM | CNc1nccc(O[C@H]2CC[C@H](NC(=O)Nc3cc(C(F)(F)F)cc(CO)c3OC)CC2)n1 [Example 65, 1-(3-(hydroxymethyl)-2-methoxy-5-(trifluoromethyl)phenyl)-3-(trans-4-((2-(methylamino)pyrimidin-4-yl)oxy)cyclohexyl)urea]
13 | 14.1 nM | O=C(Nc1cc(C(F)(F)F)ccc1OC1COC1)N[C@H]1CC[C@H](OCc2cccnc2)CC1 [Example 76, 1-(2-(oxetan-3-yloxy)-5-(trifluoromethyl)phenyl)-3-(trans-4-(pyridin-3-ylmethoxy)cyclohexyl)urea]
14 | 27.2 nM | CNc1cc(O[C@H]2CC[C@H](NC(=O)Nc3cc(C(F)(F)F)ccc3OC3CNC3)CC2)ncn1 [Example 42]
15 | 25.2 nM | COc1ccc(OC(F)(F)F)cc1NC(=O)N[C@H]1CC[C@H](COCc2ccncc2)CC1 [Example 74, 1-(2-methoxy-5-(trifluoromethoxy)phenyl)-3-(trans-4-((pyridin-4-ylmethoxy)methyl)cyclohexyl)urea]
16 | 531 nM | CCOc1ccc(C(F)(F)F)cc1NC(=O)N[C@H]1CC[C@H](Oc2ccnc(N3CCOCC3)n2)CC1 [Example 46, 1-(2-ethoxy-5-(trifluoromethyl)phenyl)-3-(trans-4-((2-morpholinopyrimidin-4-yl)oxy)cyclohexyl)urea]
17 | 13.4 nM | CNc1cc(O[C@H]2CC[C@H](NC(=O)Nc3cc(OC(F)(F)F)cc(CO)c3OC)CC2)ncn1 [Example 70, 1-(3-(hydroxymethyl)-2-methoxy-5-(trifluoromethoxy)phenyl)-3-(trans-4-((6-(methylamino)pyrimidin-4-yl)oxy)cyclohexyl)urea]
18 | 22.8 nM | COc1c(CO)cc(OC(F)(F)F)cc1NC(=O)N[C@H]1CC[C@H](Oc2ccnc(-c3cccnc3)n2)CC1 [Example 79, 1-(3-(hydroxymethyl)-2-methoxy-5-(trifluoromethoxy)phenyl)-3-(trans-4-((2-(pyridin-3-yl)pyrimidin-4-yl)oxy)cyclohexyl)urea]
